Entries after “also recorded” stand apart in the source; their conditions may differ.

Series [1] deals with BCR-Abl+ SFO2 cells. Kind of series: Combination with trametinib in BCR-Abl+ SFO2 patient-derived leukemia cells. The settings on record: cytostatic concentration of trametinib + cytostatic concentration of compound 6. Type of series: cell-based, human. From the text:
(§1) FIGS. 10n and 10o provide data results from a study of the effectiveness of treating BCR-Abl+ SFO2 cells (10n), and also in BCR-Abl− LAX7R cells (10o), which is a late-stage leukemia resistant to chemotherapy.

Series [2] concerns SupB15 model, leukemic burden in the bone marrow. Kind of series: In vivo SupB15 leukemia model. The settings on record: 21 days of treatment, 10 mg/kg i.p. From the text:
Since compound 6 worked so well in the leukemia cell line, an examination of its effectiveness in vivo in a SupB15 model was undertaken.

In series [3] the test system is circulating lymphocytes. Kind of series: Lymphocyte sequestration (circulating lymphocytes). Type of series: in vivo, mouse. Particulars: number of circulating lymphocytes 12 h after dosage. The source says: As previously discussed, FTY720 itself cannot be used in cancer patients because phosphorylation of FTY720 by SphKs makes FTY720-P, which acts at S1P receptors to cause bradycardia and immunosuppression (on-target effect for primary use).

The subject of series [4] is DU145 prostate cancer cell line. Kind of series: Cell viability assay, DU145. Particulars: 72 h, vital dye exclusion and flow cytometry; read-out: Mean IC50 (+/- SEM) in cell viability assay, DU145 prostate. The class given is cell-based, human. As for the experimental part:
(§2) Flow cytometry: Much of the biological activity presented is shown through flow cytometry data. […] Here, IC50 flow cytometry assays were used. […] To measure nutrient receptor expression following exposure to FTY720 and azacyclic constrained analogs of FTY720, surface 4F2hc expression was measured after 3 hours of drug treatment by staining 150,000 cells with phycoerythrin-conjugated mouse anti-human CD98 (by BD Biosciences™). Analysis was restricted to viable cells. All samples for the disclosed sets of data were analyzed on a BD LSR II flow cytometer and data analyzed with FlowJo™ software (by Treestar™). IC50's were calculated and statistical tests were performed using GraphPad Prism™.

Series [5] has as its system BV173 Ph+ ALL cell line. In words: Cell viability assay, BV173. The class given is cell-based, human. Particulars: 72 h, vital dye exclusion and flow cytometry; read-out: Mean IC50 (+/- SEM) in cell viability assay, BV173 Ph+ ALL. From the text: (§3) Leukemia cell assays: Effects of chemical changes on ability to kill cells as observed in cell viability assays using the BCR-ABL positive human acute lymphoblastic leukemia (ALL) cell line, Sup-B15 are described. Assays using the Sup-B15 cell line were designed to determine efficacy of azacyclic constrained small molecule analogs of FTY720 in killing leukemia cells. Analogs were generated using the synthesis methods mentioned above. Sup-B15 cells were maintained at 2-3 million/mL in RPMI 1640 (by Mediatech™) supplemented with 10% fetal calf serum (by Sigma-Aldrich™), 10 mM Hepes (by Mediatech™), 55 μM β-mercaptoethanol (by Sigma-Aldrich™), 2 mM L-glutamine (by Mediatech™), and antibiotics. BV173, Nalm-6, and Blin-1 were maintained at 1-2 million/mL and CCRF-CEM at less than 500,000/mL in the same medium. BMp190 cells were created by transducing murine bone marrow cells with pMIC-p190 which expresses the p190 isoform of BCR-Abl and human CD4 from an IRES; these cells were kept at 1-2 million/mL in RPMI supplemented as above.
(§4) Flow cytometry: Much of the biological activity presented is shown through flow cytometry data. […] Here, IC50 flow cytometry assays were used. In them, viability was determined at 72 hours by vital dye exclusion [propium iodide or DAPI (4′,6-diamindino-2-phenylindole)]. To measure nutrient receptor expression following exposure to FTY720 and azacyclic constrained analogs of FTY720, surface 4F2hc expression was measured after 3 hours of drug treatment by staining 150,000 cells with phycoerythrin-conjugated mouse anti-human CD98 (by BD Biosciences™). Analysis was restricted to viable cells.
(§5) All samples for the disclosed sets of data were analyzed on a BD LSR II flow cytometer and data analyzed with FlowJo™ software (by Treestar™). IC50's were calculated and statistical tests were performed using GraphPad Prism™.

Series [6] is described as follows: Distribution of compound 6 and its phosphorylated form in plasma, bone marrow and spleen of mice. Type of series: in vivo. Particulars: normalization to total protein; tissues versus blood. The procedure: A study was then conducted to examine what happens to compound 6 when administered to animals. Mice were treated with 10 mg/kg doses of compound 6 (i.p.) and then the mice were sacrificed at various time points, then plasma, bone marrow, and spleen tissue were extracted to build curves. […] Indeed, the ratio of phosphorylated to unphosphorylated compound 6 in the spleen and bone marrow is close to 1:1 after i.p. administration.

For series [7], the system named is BCR-Abl- LAX7R cells. Kind of series: Combination with trametinib in BCR-Abl- LAX7R patient leukemia cells. Type of series: cell-based, human. Particulars: some BCR-Abl negative patient leukemia samples.
Source text: as §1

Series [8] relates to Blin-1 Ph- ALL cell line. In words: Cell viability assay, Blin-1. Type of series: cell-based, human. The settings on record: 72 h, vital dye exclusion and flow cytometry; read-out: Mean IC50 (+/- SEM) in cell viability assay, Blin-1 Ph- ALL.
Source text: as §3, §4, §5

The subject of series [9] is Sup-B15 BCR-ABL positive human acute lymphoblastic leukemia (ALL) cell line. In words: Cell viability assay, Sup-B15 leukemia cells (flow cytometry, vital dye exclusion). The class given is cell-based. The settings on record: for cell death in combination with dasatinib: 72 h.
Source text: as §3, §4, §5

Series [10] concerns PC3 prostate cancer cell line. Kind of series: Cell viability assay, PC3. The class given is cell-based, human. The settings on record: 72 h, vital dye exclusion and flow cytometry; read-out: Mean IC50 (+/- SEM) in cell viability assay, PC3 prostate. The procedure: as §2

Turning to `CCCCCCCCc1ccc(CO[C@@H]2CN[C@@H](CO)C2)cc1.Cl` [Compound 6], in series [1], the “cell killing, combination with trametinib” value was “kills patient-derived leukemia cells without killing the irradiated stromal cell layer”. Also, the “leukemic burden in the bone marrow” value in series [2] was “dramatic reduction in the leukemic burden in the bone marrow”. Moreover, in [3], the “lymphocyte sequestration / immunosuppression” value is “does not cause immunosuppression”. The IC50 in series [4] came out at 15.1 ± 1 µM; in series [5], 3.8 ± 0.4 µM; in [8] it was 6.9 ± 0.3 µM; in [9] (BCR-Abl+ SupB15 leukemia cell line, read-out: IC50), 2 µM; in series [10] it was 13.5 ± 2.6 µM. The tissue accumulation result in [6] is “accumulates in tissues to higher levels than are present in blood”. Besides, the “sensitivity, combination with trametinib” value in [7] is given as “sensitive to this drug combination”. The “sensitivity, single agent” value in series [7] was “not sensitive to compound 6 as a single agent”. Further, the “cell killing at 72 h” value in [9] (1 μM (=0.5×IC50), alone) was “does not kill”. The “cell death in combination with dasatinib” value in series [9] (1 μM compound 6 + dasatinib 200 nM) is on record as “increases cell death”; in series [9] (2 μM compound 6 + dasatinib), “increases cell death beyond that caused by compound 6 alone”. Further, in series [9] (2 μM (1×IC50), alone), the “cell viability at 72 h” value is on record as “significantly reduces cell viability”. The “ability to kill leukemia cells, potency compared in words” value in series [9] (Sup-B15 cell viability assays) was “activity much greater than compounds 5, 7, and 8; also recorded: enhanced anticancer activity relative to its diasteromeric congeners and to FTY720”. The “killing compared with dasatinib” value in series [9] (both drugs at their maximally active dose) is on record as “kills better than dasatinib”.
